Data reported in patent US20110263478A1, “SUR1 INHIBITORS FOR THERAPY” (priority 2008, published 2011).

Legend:
[1] = tested on: rats with subarachnoid hemorrhage (SAH); assay: Rat SAH model: immunohistochemistry of inferomedial cortex and posterior cerebral artery; format: in vivo; conditions: 24 hr after SAH
Protocol: Model of SAH. All surgical procedures were approved by the Institutional Animal Care and Use Committee of the University of Maryland. […] Fasted male Wistar rats (225-275 gm; Harlan, Indianapolis, Ind.) were anesthetized (ketamine, 60 mg/kg and xylazine, 7.5 mg/kg, intraperitoneally) and allowed to ventilate air spontaneously. Temperature was maintained at 37° C. using a heating pad regulated by a rectal temperature sensor (Harvard Apparatus, Holliston, M A). The laser Doppler flowmetry (LDF) probe (MoorLab, Moore Instruments, Sussex, UK) was affixed to the skull. The right carotid sheath was exposed through a ventral midline incision, the common, external and internal carotid arteries (CCA, ECA, ICA) were dissected, and the pterygopalatine artery was ligated. Typical blood gases (i-STAT, Heska Corp, Fort Collins, Colo.), sampled from the CCA before injury, were pO2>90 mm Hg, pCO2<47 mm Hg, and glucose 150-200 mg/dl.
The model of SAH involved a single endovascular puncture of the ICA using a 4-0 filament sharpened at its tip, followed by reperfusion of the ICA (Schwartz et al. 2000). With temporary clips on the CCA and ICA, the ECA was divided proximal to the ligature, the 4-0 nylon filament was introduced through the stump of the ECA into the ICA, arterial puncture was produced at ˜19 mm under LDF monitoring, the filament was withdrawn, the ECA stump was ligated and flow was restored to the CCA/ICA. Unlike the widely used method in which a 3-0 filament is used to produce severe hemorrhage associated with high mortality, the method used here utilizing a 4-0 filament produced mild-tomoderate SAH associated with low mortality. We monitored rCBF using LDF to confirm the sharp drop after puncture and filament withdrawal, and to assure the full recovery in rCBF within 10-15 min of restoration of flow in the ICA, making ischemic injury less likely than in versions of the model in which the CCA is ligated.
Controls received the same volume of vehicle in the same way. […] The osmotic mini-pumps delivered 0.5 μl/hr, yielding infusion doses of 200 ng/hr.
Rats were euthanized 24 hr after induction of SAH. In some cases, fresh tissues were collected for immunoblot. In other cases, animals underwent perfusion fixation for immunohistochemistry or in situ hybridization.
Immunohistochemistry. Cryosections (10 μm) were post-fixed with 4% formaldehyde and immunolabeled using standard techniques. After permeabilizing (0.3% Triton X-100 for 10 min), sections were blocked (2% donkey serum for 1 hr; Sigma D-9663), then incubated with primary antibody directed against: SUR1 (1:200; SC-5789; Santa Cruz Biotechnology); NeuN (1:100; MAB377; Chemicon, CA); GFAP (1:500; CY3 conjugated; C-9205; Sigma, St. Louis, Mo.); vonWillebrand factor (1:200; F3520, Sigma); TNFα (1:100; Santa Cruz); p65 (1:100; Santa Cruz); FITC-conjugated IgG (1:200; Santa Cruz); ZO-1 (1:100; Zymed Laboratories). Fluorescent-labeled, species appropriate secondary antibodies (Molecular Probes, OR) were used for visualization. Omission of primary antibody and competition with antigenic peptides, when available, were used as negative controls. Fluorescent signals were visualized using epifluorescence microscopy (Nikon Eclipse E1000).
For quantitative immunohistochemistry, all sections were immunolabeled as a single batch, as previously described (Gerzanich et al. 2003). All images were collected using uniform parameters of magnification and exposure. Segmentation analysis was performed by computing a histogram of the pixel intensity for equal regions of interest (ROI) using IP Lab software, with the ROI confined to the 400 μm of parenchymal tissue dorsal to the pia of the inferomedial cortex ipsilateral to the SAH. For IgG, the overall pixel intensity of the ROI was determined and the background was subtracted. […]

[2] = tested on: NCCa-ATP channels in bEnd.3 cells; assay: Patch clamp, Na azide-induced ATP depletion current in endothelial cells exposed to hypoxia; format: cell-based, murine; conditions: 1 μM glibenclamide; hypoxic endothelial cells
Protocol: Patch clamp of endothelial cells was performed using a nystatin-perforated patch technique, to maintain the metabolic integrity of the cells. The identity of the activated channel can be assessed by measurement of the “reversal potential”, the potential at which an ion channel current reverses from inward to outward. With physiologically relevant concentrations of ions intracellularly and extracellularly (high potassium inside, high sodium outside), the reversal potential can unambiguously distinguish between a K^+ channel current such as KATP, which reverses negative to −50 mV and a non-selective cation channel current such as NCCa-ATP, which reverses near 0 mV.
Cell culture. Endothelial cell cultures from human brain microvessels, human aorta (ScienCell Research Laboratories), and murine brain microvessels (bEnd.3; ATCC), were grown at low density using media and supplements recommended by suppliers.

[3] = tested on: rats with spinal cord injury (SCI); assay: Rat cervical SCI model: neurobehavioral assessment (inclined plane, paw placement, rearing); format: in vivo
Protocol: SCI injury model. This study was performed in accordance with the guidelines of the Institutional Animal Care and Use Committee. Adult female Long-Evans rats (275-350 gm) were anesthetized (Ketamine, 60 mg/kg plus Xylazine, 7.5 mg/kg, i.p.). The dura at C4-5 was exposed via a left hemilaminectomy. A hemi-cervical spinal cord contusion was created using a blunt force impactor (1.3-mm impactor head driven by a 10 gm weight dropped vertically 25 mm) (Soblo sky et al., 2001; Gensel et al., 2006). After SCI, animals were given 10 ml of glucose-free normal saline s.q. Rectal temperature was maintained at ˜37° C. using a servo-controlled warming blanket.
For in vivo gene suppression of SUR1, we used oligodeoxynucleotides that were phosphorothioated at 4 distal bonds to protect against endogenous nucleases (35).
Neurobehavioral assessment. All measurements were performed by blinded evaluators. Performance on the inclined plane was evaluated as described (Rivlin and Tator, 1977). To assess paw placement and vertical exploration (rearing) (Nikulina et al., 2004) animals were videotaped while in a translucent cylinder (19×20 cm). Rearing was quantified as the number of seconds spent with both front paws elevated above shoulder-height during a 3-min period of observation.

[4] = tested on: rats with percussion-TBI; assay: Percussion-TBI rats: neurobehavioral function (SFU, SVE); format: in vivo, rat
From the text: Young adult male Long-Evans rats, 240-280 gm, were studied. Rats were anesthetized (Ketamine and Xylazine) and physiological parameters including temperature and blood gases were maintained within appropriate physiological ranges. With the head fixed in a stereotaxic frame, a 6-mm circular craniectomy was created abutting the sagittal and lambdoidal sutures. A posterior location was chosen to emphasize damage to underlying hippocampus (Vink et al., 2001; Floyd et al., 2002). […] Sham controls underwent craniectomy without percussion.
Spontaneous forelimb use (SFU) was quantified and spontaneous vertical exploration (SVE) was quantified during 7 days post-TBI. SFU measures sensorimotor asymmetry (Schallert et al., 2000) whereas SVE measures not only vestibulomotor function but also time spent in exploratory activity.

[5] = 1, 3 and 7 d post-SCI, vs vehicle

`COc1ccc(Cl)cc1C(=O)NCCc1ccc(S(=O)(=O)NC(=O)NC2CCCCC2)cc1` [glibenclamide] was tested, and the “protein (IgG) endocytosis by neurons” value [1] was “essentially absent”, the “caspase-3 activation in the PCA” value ([1]; 5 rats) was “absent in ⅘ rats and was minimal in the fifth” and the “ZO-1 localization in PCA endothelium” value ([1]; vs vehicle) was “significantly reduced cytoplasmic localization and restored intercellular localization”. The “caspase-3 activation in parenchymal tissues” value ([1]; vs vehicle) was “significantly reduced”, the “local inflammation (TNFα, p65 immunolabeling)” value ([1]; vs vehicle) was “significantly reduced” and the “reactive astrocytosis (GFAP immunolabeling)” value ([1]; vs vehicle) was “significantly reduced”. For the same molecule, the “block of Na azide-induced ohmic current” value [2] was “blocked”, the “performance on inclined plane” value [3, 5] was “significantly better performance” and the “vertical exploratory behavior (rearing)” value [3, 5] was “significantly better performance”. The “vertical exploration (rearing), time during 3-min observation” value ([3]; 1 d post-SCI, 200 ng/h s.q.) was 42 ± 7 s, the ipsilateral paw placement ([3]; 1 d post-SCI, vs vehicle) was “significantly better performance” and the general mobility ([3]; post-SCI, vs vehicle-treated rats generally not mobile) was “typically ambulatory and often exhibited proficient exploratory behavior”. The “spontaneous vertical exploration (SVE)” value ([4]; 1, 2 and 7 days post-TBI, vs controls) was “significantly greater SVE scores” and the “spontaneous use of forelimb contralateral to injury” value ([4]; 2 days post-TBI, controls 3.5±3.5%, P=0.05) was 16.5±3.4%.
